Results reported in ChEMBL document CHEMBL5625263, “Discovery of a novel series of selective macrocyclic PKCTheta inhibitors” (Bioorg Med Chem Lett, 2024).
Values after ≈ are worked out from the molar mass of the structure shown.

Experiments:
[1] = biological target: T1, Protein kinase C theta type (Homo sapiens, UniProt Q04759); assay: Inhibition of PKC theta (unknown origin) in presence of ATP at Km
[2] = biological target: T2, Protein kinase C alpha type (Homo sapiens, UniProt P17252); assay: Inhibition of PKC alpha (unknown origin) in presence of ATP at Km
[3] = Metabolic stability in human hepatocytes assessed as intrinsic clearance measured per 10^6 cells; format: ADME, cell-based, Hepatocyte; settings: read-out: CLH
[4] = Solubility of the compound; format: physicochemical
[5] = Apparent permeability of a compound in human Caco-2 cells; format: ADME, cell-based
[6] = Efflux ratio of apparent permeability across basolateral to apical side over apical to basolateral side in human Caco-2 cells; format: ADME, cell-based
[7] = biological target: T1, Protein kinase C theta type; assay: Inhibition of PKC theta (unknown origin) in presence of 1 mM ATP
[8] = biological target: T2, Protein kinase C alpha type; assay: Inhibition of PKC alpha (unknown origin) in presence of 1 mM ATP
[9] = biological target: T1, Protein kinase C theta type; assay: Inhibition of PKC theta in TCR-stimulated human PBMC assessed as inhibition of IL-2 release; format: cell-based
[10] = biological target: Voltage-gated inwardly rectifying potassium channel KCNH2 (Homo sapiens, UniProt Q12809); assay: Inhibition of hERG; format: toxicity
Sequence of Voltage-gated inwardly rectifying potassium channel KCNH2 (Q12809 whole entry): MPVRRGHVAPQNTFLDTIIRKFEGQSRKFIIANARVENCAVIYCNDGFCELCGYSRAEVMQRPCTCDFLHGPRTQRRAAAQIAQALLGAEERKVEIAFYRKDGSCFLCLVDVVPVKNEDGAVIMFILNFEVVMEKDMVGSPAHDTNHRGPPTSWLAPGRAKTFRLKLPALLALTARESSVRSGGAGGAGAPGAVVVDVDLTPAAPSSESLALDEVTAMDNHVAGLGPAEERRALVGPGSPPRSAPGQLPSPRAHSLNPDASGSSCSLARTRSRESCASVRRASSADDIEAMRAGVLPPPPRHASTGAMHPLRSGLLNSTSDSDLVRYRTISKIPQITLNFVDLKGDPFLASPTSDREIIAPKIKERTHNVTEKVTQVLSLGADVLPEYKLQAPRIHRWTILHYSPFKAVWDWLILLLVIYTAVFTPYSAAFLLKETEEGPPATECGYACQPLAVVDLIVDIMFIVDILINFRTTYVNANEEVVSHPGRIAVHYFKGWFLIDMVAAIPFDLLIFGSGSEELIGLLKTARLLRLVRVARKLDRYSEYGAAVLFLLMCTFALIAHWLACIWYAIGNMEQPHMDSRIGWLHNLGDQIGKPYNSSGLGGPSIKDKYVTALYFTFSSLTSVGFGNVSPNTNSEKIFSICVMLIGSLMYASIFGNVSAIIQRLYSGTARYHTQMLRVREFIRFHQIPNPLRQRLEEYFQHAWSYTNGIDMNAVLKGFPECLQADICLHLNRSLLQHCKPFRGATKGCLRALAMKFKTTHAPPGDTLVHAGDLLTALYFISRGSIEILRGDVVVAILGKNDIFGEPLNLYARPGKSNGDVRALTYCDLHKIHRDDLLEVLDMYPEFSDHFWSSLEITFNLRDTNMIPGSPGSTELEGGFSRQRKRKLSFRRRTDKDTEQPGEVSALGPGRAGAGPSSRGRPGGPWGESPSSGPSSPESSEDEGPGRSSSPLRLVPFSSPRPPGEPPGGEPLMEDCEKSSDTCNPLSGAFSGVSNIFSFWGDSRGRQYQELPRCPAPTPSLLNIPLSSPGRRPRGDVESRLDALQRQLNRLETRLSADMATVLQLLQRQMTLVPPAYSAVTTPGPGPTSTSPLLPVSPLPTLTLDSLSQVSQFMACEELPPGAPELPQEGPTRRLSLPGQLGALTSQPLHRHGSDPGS

[11] = Oral bioavailability in rat; format: ADME, organism-based; settings: in vivo
[12] = Selectivity ratio of inhibition of PKCdelta (unknown origin) to inhibition of PKC theta (unknown origin) at 1 mM ATP concentration
[13] = Selectivity ratio of inhibition of PKCeta (unknown origin) to inhibition of PKC theta (unknown origin) at 1 mM ATP concentration
[14] = Selectivity ratio of inhibition of PKCbeta1 (unknown origin) to inhibition of PKC theta (unknown origin) at 1 mM ATP concentration
[15] = Selectivity ratio of inhibition of AURB (unknown origin) to inhibition of PKC theta (unknown origin) at 1 mM ATP concentration
[16] = Selectivity ratio of inhibition of HGK (unknown origin) to inhibition of PKC theta (unknown origin) at 1 mM ATP concentration
[17] = Selectivity ratio of inhibition of GSK3beta (unknown origin) to inhibition of PKC theta (unknown origin) at 1 mM ATP concentration
[18] = Selectivity ratio of inhibition of PKACalpha (unknown origin) to inhibition of PKC theta (unknown origin) at 1 mM ATP concentration
[19] = Selectivity ratio of inhibition of MSK1 (unknown origin) to inhibition of PKC theta (unknown origin) at 1 mM ATP concentration
[20] = Selectivity ratio of inhibition of RSK3 (unknown origin) to inhibition of PKC theta (unknown origin) at 1 mM ATP concentration
[21] = Selectivity ratio of inhibition of PI3K-C2beta (unknown origin) to inhibition of PKC theta (unknown origin) at 1 mM ATP concentration
[22] = Selectivity ratio of inhibition of CLK1 (unknown origin) to inhibition of PKC theta (unknown origin) at 1 mM ATP concentration
[23] = Selectivity ratio of inhibition of FLT3 (unknown origin) to inhibition of PKC theta (unknown origin) at 1 mM ATP concentration
[24] = Selectivity ratio of inhibition of TRKA (unknown origin) to inhibition of PKC theta (unknown origin) at 1 mM ATP concentration

T1 sequence (Q04759 whole entry): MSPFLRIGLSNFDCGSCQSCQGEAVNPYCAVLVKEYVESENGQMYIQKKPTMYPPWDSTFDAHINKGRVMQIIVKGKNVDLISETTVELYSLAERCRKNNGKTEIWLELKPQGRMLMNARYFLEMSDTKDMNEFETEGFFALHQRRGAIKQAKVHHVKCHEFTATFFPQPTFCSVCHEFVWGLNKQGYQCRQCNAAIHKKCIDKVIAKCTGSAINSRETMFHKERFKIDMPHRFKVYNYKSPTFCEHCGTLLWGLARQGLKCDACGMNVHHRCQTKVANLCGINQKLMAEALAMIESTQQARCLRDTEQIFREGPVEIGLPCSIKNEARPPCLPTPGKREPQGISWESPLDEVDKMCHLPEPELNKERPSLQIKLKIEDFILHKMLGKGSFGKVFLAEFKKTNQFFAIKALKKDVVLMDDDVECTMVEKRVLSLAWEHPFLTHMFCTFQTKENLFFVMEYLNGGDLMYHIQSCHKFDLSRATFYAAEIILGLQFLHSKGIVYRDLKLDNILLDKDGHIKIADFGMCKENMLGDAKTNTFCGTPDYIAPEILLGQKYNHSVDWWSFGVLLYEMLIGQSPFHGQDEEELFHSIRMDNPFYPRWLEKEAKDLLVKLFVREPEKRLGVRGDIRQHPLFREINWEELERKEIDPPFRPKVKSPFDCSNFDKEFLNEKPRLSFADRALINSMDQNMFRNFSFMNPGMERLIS

SMILES | IC50 [1] [µM] | IC50 [2] [µM] | hepatocyte CLint [3] [µL/min/1e6 cells] | solubility [4] [µM] | Papp [5] [×10⁻⁶ cm/s] | efflux ratio [6] | IC50 [7] [µM] | IC50 [8] [µM] | IC50 [9] [µM] | also measured
O=c1[nH]c2nccc3c2n1-c1cccc(n1)OCCCCO3 | 0.0092 | > 10 | 12 | 3 (≈ 0.895 µg/mL) | 15 | 0.9 |  |  |  | 
CC1CCCn2ccc(=O)c3ccc(nc32)-n2c(=O)[nH]c3nccc(c32)O1 (configuration not stated) | 0.0012 | 0.88 | < 4 | 275 (≈ 99.9 µg/mL) | 1.3 | 23 | 0.015 | 6.6 | 0.052 | 
CC1CCCOc2ccnc3[nH]c(=O)n(c23)-c2ccc3nccc1c3n2 (configuration not stated) | < 0.0005 | 0.059 | 36 |  | 31 | 0.8 | < 0.0005 | 0.55 | 0.0042 | IC50 [10]: 24 µM
CN1CCCCOc2ccnc3[nH]c(=O)n(c23)-c2ccc(C(N)=O)c1n2 |  |  |  | 16 (≈ 5.67 µg/mL) | 2.2 |  |  |  |  | 
CC1CCCOc2ccnc3[nH]c(=O)n(c23)-c2cccc(n2)O1 (configuration not stated) | < 0.0005 | 0.259 | 32 | 180 (≈ 56.2 µg/mL) | 32 | 0.7 | 0.0036 | 2.2 | 0.028 | 
CC1CCCOc2nc(c(-c3nnc[nH]3)cc2C(N)=O)-n2c(=O)[nH]c3nccc(c32)O1 (configuration not stated) | 0.0033 | 1.1 |  |  |  |  |  |  | 0.16 | 
CC1CCN2c3nc(ccc3C(=O)NC2(C)C)-n2c(=O)[nH]c3nccc(c32)O1 (configuration not stated) | < 0.0001 | 0.057 |  | 25 (≈ 9.51 µg/mL) | 0.9 | 65 | 0.0001 | 0.487 | 0.006 | bioavailability [11]: 17%; Selectivity ratio [12]: 677; Selectivity ratio [13]: 997; Selectivity ratio [14]: 911; Selectivity ratio [15]: 253; Selectivity ratio [16]: 14500; Selectivity ratio [17]: 17900; Selectivity ratio [18]: 25000; Selectivity ratio [19]: 5160; Selectivity ratio [20]: 2260; Selectivity ratio [21]: 4640; Selectivity ratio [22]: 1620; Selectivity ratio [23]: 2450; Selectivity ratio [24]: 5180
CC1(C)NC(=O)c2ccc3cc2N1CCCOc1ccnc2[nH]c(=O)n-3c12 |  |  |  | 9 (≈ 3.29 µg/mL) | 0.3 |  |  |  |  | 
CC1(C)NC(=O)c2ccc3nc2N1CCCCOc1ccnc2[nH]c(=O)n-3c12 |  |  |  | 1.5 (≈ 0.571 µg/mL) | 0.1 |  |  |  |  | 
CN1CCN(c2nc(C3=C(c4c[nH]c5ccccc45)C(=O)NC3=O)c3ccccc3n2)CC1 [SOTRASTAURIN] | 0.0007 |  |  |  |  |  | 0.0034 |  | 0.049 | 
CC1(C)NC(=O)c2ccc3cc2N1CCCCOc1ccnc2[nH]c(=O)n-3c12 |  |  |  | 12 (≈ 4.55 µg/mL) | 0.7 |  |  |  |  | 
NC(=O)c1ccc2nc1OCCCCOc1ccnc3[nH]c(=O)n-2c13 |  |  |  | 5.5 (≈ 1.88 µg/mL) | 0.2 |  |  |  |  | 
CC1CCOc2ccnc3ccc(nc23)-n2c(=O)[nH]c3nccc(c32)O1 (configuration not stated) | 0.0042 | 0.98 | < 4 |  | 26 | 1 | 0.054 | 7.9 | 0.255 | IC50 [10]: > 30 µM
CC1CCCOc2ccnc3[nH]c(=O)n(c23)-c2ccc3c(=O)ccn1c3n2 (configuration not stated) | < 0.0005 | 0.068 | 17 | 296 (≈ 108 µg/mL) | 3.1 | 12 | < 0.0005 | 0.679 | 0.0076 | 
CC1(C)NC(=O)c2ccc3nc2N1CCCOc1ccnc2[nH]c(=O)n-3c12 |  |  |  | 1.9 (≈ 0.696 µg/mL) | 1.3 |  |  |  |  | 
CN1CCCCOc2ccnc3[nH]c(=O)n(c23)-c2cc1ccc2Cl |  |  | < 1 | 4 (≈ 1.38 µg/mL) |  |  |  |  |  | 
CC1CCC(C)c2ccnc3ccc(nc23)-n2c(=O)[nH]c3nccc(c32)O1 (configuration not stated) | < 0.0005 | 0.065 | 19 |  |  |  | 0.0039 | 0.84 | 0.028 | 
CC1CCC(C)Oc2ccnc3[nH]c(=O)n(c23)-c2nc(c(C(N)=O)cc2F)O1 (configuration not stated) | < 0.0005 | 0.049 | < 4 | 145 (≈ 56.2 µg/mL) | 8 | 7 | 0.0009 | 0.62 | 0.012 | bioavailability [11]: 69%
CC1CCN(C)c2ccnc3ccc(nc23)-n2c(=O)[nH]c3nccc(c32)O1 (configuration not stated) | < 0.0005 | 0.082 | < 4 |  | 14 | 2 | 0.001 | 0.94 | 0.0065 | IC50 [10]: < 0.4 µM
CC1CCCOc2nc(c(-c3cnc[nH]3)cc2C(N)=O)-n2c(=O)[nH]c3nccc(c32)O1 (configuration not stated) | 0.0014 | 0.92 |  |  |  |  | 0.015 | 6.7 | 0.089 | 
O=c1ccn2c3nc(ccc13)-n1c(=O)[nH]c3nccc(c31)OCCCC2 |  |  | 6 | 0.9 (≈ 0.314 µg/mL) | 0.2 |  |  |  |  | 
CC1CCCOc2ccnc3[nH]c(=O)n(c23)-c2nc(c(C(N)=O)cc2-c2ncc[nH]2)O1 (configuration not stated) | < 0.001 | 0.27 | 22 |  |  |  | 0.0012 | 2.2 | 0.015 | 
CC1CCn2ccc(=O)c3cc(F)c(nc32)-n2c(=O)[nH]c3nccc(c32)O1 (configuration not stated) | < 0.0005 | 0.44 | < 4 | 274 (≈ 101 µg/mL) | 0.5 | 53 | 0.005 | 3.7 | 0.027 | 
CC1CCCOc2nc(c(-c3ccn[nH]3)cc2C(N)=O)-n2c(=O)[nH]c3nccc(c32)O1 (configuration not stated) | 0.047 | 8.2 |  |  |  |  |  |  |  | 
CC1CCCOc2cccc(n2)-n2c(=O)[nH]c3nccc(c32)O1 (configuration not stated) | 0.005 | 1.9 | 6.1 | 32 (≈ 9.99 µg/mL) | 31 | 0.6 | 0.061 | > 10 | 0.236 | 
C[C@H](c1ccccc1)N1c2cc(-n3c(=O)[nH]c4ncccc43)ccc2C(=O)NC1(C)C |  |  | 11 | 54 (≈ 22.3 µg/mL) | 7.4 |  |  |  |  | 
CC1CCN(C)c2ccnc3cc(F)c(nc23)-n2c(=O)[nH]c3nccc(c32)O1 (configuration not stated) | < 0.0005 | 0.025 | 10 |  |  |  | < 0.0005 | 0.19 | 0.0019 | IC50 [10]: 2.4 µM
